How the values were obtained:
[1] = tested on: Scn1A mice; set-up: method as in PMID 34384142; conditions: cited from earlier work
[2] = Pharmacokinetic profile: cannabinoids in rat serum by LC-MS/MS, non-compartmental analysis; conditions: for amount identified and quantitated in serum samples: rats given doses of 5, 50, 300 and 600 mg/kg, LC-MS; for AUC Inf / AUC Last / Cmax / T1/2 / Tmax / Vd / Cl: rat serum
Method: The pharmacokinetic profile of the EU-GMP-certified Cannabis sativa L. with 15.6% THC and <1% CBD was assessed using 4 dose levels, 5, 50, 300, and 600 mg/kg. Dose levels were chosen in accordance with OECD 417 guidelines being lower than 1000 mg/kg but still high enough to allow for the identification and measurement of natural cannabinoids in the serum. Each dose level group consisted of 6 female Sprague-Dawley rats (8–12 weeks, 200–300 g) housed, cared and treated in the same conditions as the animals involved in the acute toxicity study. After gavage delivery of the compound, blood samples were collected, through a cardiac puncture, at 15 min, 30 min, 1 h, 2 h, 3 h, 4 h, 8 h, 12 h, 24 h, 48 h, and 72 h, respectively. The collected blood samples were then allowed to clot for 30 min at room temperature and centrifuged at 2000× g for 15 min at 4 °C. The separated serum samples were transferred immediately in microcentrifuge tubes and stored at −20 °C until THC and THCA quantification using LC-MS analysis were performed.
A method for simultaneous extraction and LC-MS/MS quantitation of 11 cannabinoids was developed and validated for the present study. Cannabinoid extraction from rat serum was performed according to the method described by Wakshlag et al., with modifications. Rat serum (40 μL) was mixed with 10 μL water: methanol (1:1) and 10 μL internal standard (200 ng/mL of CBD-d3) diluted in water: methanol (1:1). Proteins were precipitated by adding 80 μL ice-cold acetonitrile to each sample followed by vortex 2 min at 6 °C, 1000 rpm and centrifugation at 4000 rpm for 10 min at 4 °C. The supernatant (100 μL) was mixed with ultrapure water (100 μL) in another 1.5 mL microcentrifuge tube and centrifuged again at 4000 rpm for 10 min at 4 °C. The supernatant (100 μL) was transferred to another 1.5 mL microcentrifuge tube and placed in ice until LCMS analysis. Ten μL of the sample were injected into a Phenomenex Kinetex C18 (100 × 4.6 mm, 2.6 μm, 100 Å) HPLC separation column connected in the column compartment of an Agilent 1200 HPLC coupled to an Agilent 6410 electrospray-triple quadrupole mass spectrometer. A 10:1 post-column splitter was used. The column was equilibrated with mobile phase A (0.1% formic acid in water) and mobile phase B (0.1% formic acid in acetonitrile) at 50% B for 1 min. A linear gradient from 50% B to 90% B for 3 min was used and was held constant at 90% B for 6 min, then decreased to 50% B in 1 min and maintained at 50% B for 5 min. The flow rate was […], and the column temperature was 24 °C.
The mass spectrometer was operated in positive mode. The source parameters were a capillary voltage of 4000 V, a gas of temperature 325 °C, a gas flow of 8 L/min, and a nebulizer of 35 psi. The parameters of the mass spectrometer for each time and scan segment and the retention time for each compound are presented in Table 3.
The qualitative analysis of the chromatograms and mass spectra was performed by Agilent MassHunter Workstation Software Qualitative Analysis v.B.01.02 and the quantitative analysis by Agilent MassHunter Workstation Software Quantitative Analysis v.B.01.03. Linear calibration curves were obtained for all 11 cannabinoids using the relative response (peak area of each cannabinoid/peak area of internal standard) and the relative concentration (concentration of each cannabinoid/concentration of internal standard). A linear 7-point calibration curve with 1/×2 weighing and a concentration range of 5–1000 ng/mL in rat serum was employed for the quantitation of the serum samples collected in the present study. The analysis of carryover was performed by LC/MS analysis of a blank sample extracted from normal rat serum after LC/MS analysis of a sample extracted from rat serum fortified with 1000 ng/mL natural cannabinoids.

[3] = tested on: seizure models with electric shocks; set-up: method as in PMID 34384142; conditions: doses of 10 and 30 mg/kg; cited from earlier work
[4] = tested on: CB1; set-up: method as in PMID 28861508; conditions: relative to THC; cited from earlier work
[5] = tested on: CB2; set-up: method as in PMID 28861508; conditions: relative to THC; cited from earlier work
[6] = tested on: CB1; set-up: method as in PMID 28861508; conditions: suggests a weak agonist activity; cited from earlier work
[7] = tested on: CB2; set-up: method as in PMID 28861508; conditions: cited from earlier work
[8] = oral 5 mg/kg Cannabixir Medium Flos (0.78 mg Δ9-THCA-A + Δ9-THC)
[9] = oral 50 mg/kg Cannabixir Medium Flos (7.8 mg Δ9-THCA-A + Δ9-THC)
[10] = oral 300 mg/kg Cannabixir Medium Flos (46.8 mg Δ9-THCA-A + Δ9-THC)
[11] = oral 600 mg/kg Cannabixir Medium Flos (93.6 mg Δ9-THCA-A + Δ9-THC)

In the case of `CCCc1cc2c(c(O)c1C(=O)O)C=CC(C)(CCC=C(C)C)O2` (stereo not drawn) [CBCVA, cannabichromevarinic acid], the frequency of convulsions [1] is given as “increase frequency of convulsions”.
For `CCCCCc1cc(O)c(C/C=C(\C)CCC=C(C)C)c(O)c1` [CBG, Cannabigerol], the frequency of convulsions [1] is listed as “increase frequency of convulsions”.
For `CCCCCc1cc2c(c(O)c1C(=O)O)C=CC(C)(CCC=C(C)C)O2` (stereo not drawn) [CBCA, cannabichromenic acid], the “amount identified and quantitated in serum samples” value (“amount identified and quantitated” below) [2] was “low amounts”.
For `C=C(C)[C@@H]1CCC(C)=C[C@H]1c1c(O)cc(CCCCC)c(C(=O)O)c1O` [CBDA, cannabidiolic acid], the “amount identified and quantitated” value [2] was “low amounts”.
For `CCCCCc1cc(O)c(C/C=C(\C)CCC=C(C)C)c(O)c1C(=O)O` [CBGA, cannabigerolic acid], the “amount identified and quantitated” value [2] is listed as “high amounts”, the frequency of convulsions [1] is listed as “increase frequency of convulsions” and the “effect on seizure models with electric shocks” value [3] is listed as “pro-convulsive”.
For `C=C(C)[C@@H]1CCC(C)=C[C@H]1c1c(O)cc(CCC)c(C(=O)O)c1O` [CBDVA, cannabidivarinic acid], the frequency of convulsions [1] is given as “increase frequency of convulsions”.
For `CCCCCc1cc2c(c(O)c1C(=O)O)C1C=C(C)CCC1C(C)(C)O2` (stereo not drawn) [Δ9-THCA-A, Δ9-tetrahydrocannabinolic acid], the “binding for CB1, times smaller than that of THC” value [4] is listed as “at least 62 times”, the “binding for CB2, times smaller than THC” value [5] is listed as at least 125 times and the “AUC Inf” value [2, 8] is listed as 260.802 ng·h/mL. The “AUC Last” value [2, 8] was 197.236 ng·h/mL, the Cmax [2, 8] was 42.425 ng/mL and the T1/2 [2, 8] was 5.3374 h. For the same compound, the Tmax [2, 8] was 3 h, the Vd [2, 8] was 23.0298 L/kg and the “AUC Inf” value [2, 9] was 3172.8488 ng·h/mL. The “AUC Last” value [2, 9] was 3163.1937 ng·h/mL, the Cl [2, 9] was 40.972 mL/min/kg and the Cmax [2, 9] was 404.16 ng/mL. It also gave a T1/2 [2, 9] of 5.4189 h, a Tmax [2, 9] of 3 h and a Vd [2, 9] of 19.2193 L/kg. The “AUC Inf” value [2, 10] was 13,544.792 h*ng/mL, the “AUC Last” value [2, 10] was 13,323.57 h*ng/mL and the Cl [2, 10] was 57.587 mL/min/kg. It also gave a Cmax [2, 10] of 2787.617 ng/mL, a T1/2 [2, 10] of 10.291 h and a Tmax [2, 10] of 0.5 h. The Vd [2, 10] was 51.298 L/kg, the “AUC Inf” value [2, 11] was 43,261.689 h*ng/mL and the “AUC Last” value [2, 11] was 40,371.48 h*ng/mL. The Cl [2, 11] was 36.058 mL/min/kg, the Cmax [2, 11] was 10,563.4 ng/mL and the T1/2 [2, 11] was 10.988 h. For the same compound, the Tmax [2, 11] was 0.25 h, the Vd [2, 11] was 34.298 L/kg and the “amount identified and quantitated” value [2] was “high amounts”. For the same compound, the “efficacy at CB1 (AMPc)” value [6] was “slightly inhibited AMPc” and the “efficacy for CB2” value [7] was “no efficacy”.
For `CCCCCc1cc(O)c2c(c1)OC(C)(C)[C@@H]1CCC(C)=C[C@@H]21` [Δ9-THC, Δ9-tetrahydrocannabinol], the Tmax [2, 8] was 0 h, the Tmax [2, 9] was 0 h and the “AUC Inf” value [2, 10] was “BQL”. The “AUC Last” value [2, 10] was “BQL”, the Cl [2, 10] was “BQL” and the Cmax [2, 10] was “BQL”. For the same compound, the T1/2 [2, 10] was “BQL”, the Tmax [2, 10] was “BQL” and the Vd [2, 10] was “BQL”. The “AUC Inf” value [2, 11] was 287.2334 ng·h/mL, the “AUC Last” value [2, 11] was 284.342 ng·h/mL and the Cl [2, 11] was 5431.12 mL/min/kg. For the same compound, the Cmax [2, 11] was 34.916 ng/mL, the T1/2 [2, 11] was 7.080 h and the Tmax [2, 11] was 0.25 h. For the same compound, the Vd [2, 11] was 3328.818 L/kg and the “amount identified and quantitated” value [2] was “low amounts”.

— article PMC10223347, “Acute Toxicity and Pharmacokinetic Profile of an EU-GMP-Certified Cannabis sativa L. in Rodents” (Pharmaceuticals, 2023)
